# Reference: US20090186915A1, “Compositions and methods for treatment of glioblastoma, gliosarcoma, NSCLC, and head and neck cancer” (Unibioscreen S. A., priority 2006, published 2009)
# pIC50: −log10 of the molar value.
# Key:
# [1] = system: PC-3; assay: Apoptosis by Annexin V flow cytometry, PC-3; type: cell-based, human
# Procedure: We used flow cytometry (according to the protocol found in Mijatovic et al. Neoplasia 2006) to determine the percentages of PC-3 and DU-145 positive cells for both Annexin V and propidium iodide and we observed that a maximum of 10% only of PC-3 or DU-145 cells underwent apoptotic processes following a treatment with 10 μM of the compound produced according to example 2 or example 7.
# The determination of the percentage of cells undergoing apoptosis was performed using an Annexin V-FITC Apoptosis Detection Kit (Sigma) following the manufacturer's instructions. Each sample was evaluated in triplicate.
# [2] = system: PC-3; assay: Lysosomal membrane permeabilization (LMP), PC-3; type: cell-based, human; settings: 72 hours, 1 μM or 10 μM
# Description: It is well known that lysosomes control cell death at several levels. In response to endogenous or exogenous stress (including chemotherapy), lysosomal membrane permeabilization (LMP) can occur, leading to the release of catabolic hydrolases that can mediate caspase-dependent apoptosis, caspase-independent apoptosis-like cell death or even necrosis following high levels of LMP.
# [3] = UNBS5162 mouse pharmacokinetics; type: in vivo
# Procedure: Mouse in-life phase. Female B6D2F1 mouse (Charles River, L'Arbresle, France) were administered a single i.v. bolus injection of 20 mg/kg or a single oral dose of 80-mg/kg UNBS5162 as a solution (formulated in 0.5% lactic acid). Dosing volume was 10 ml/kg body weight. The i.v. injection was performed through the tail vein, and the oral dose was given by gavage. Blood sampling for pharmacokinetic analysis was performed by cardiac puncture after Nembutal intraperitoneal injection. The blood was collected over Li-heparin at 0.05, 0.08, 0.17, 0.25, 0.33, 0.5, 0.75, 1, 2, 4, 7, 16, and 24 hours after dose. Five animals were used per time point. Blood was kept on ice for a maximum of 2 hours before isolating plasma by centrifugation, and the resulting plasma was stored at approximately −70° C. until analysis. The samples were subsequently analyzed for UNBS5162 by liquid chromatography-mass spectrometry.
# Plasma concentrations of UNBS5162 were determined using liquid chromatography-mass spectrometry. […] Briefly, solid phase extraction was performed using SPE Oasis HLB columns of 1 ml (Waters). UNBS5162 and the internal standard UNBS5181 were eluted using methanol, evaporated to dryness and reconstituted in starting solvent, a mixture (90:10 v/v) of 0.05% aqueous formic acid (mobile phase A) and 0.05% formic acid in acetonitrile (mobile phase B). Liquid chromatographic separation was effected using an Atlantis T3 column (50×2.1 mm; 3 μm), with an isocratic method with a 90:10 v/v ratio of mobile phases A/B at a flow rate of 250 μl/min for 12.5 minutes, followed by 2 minutes of 100% mobile phase B and then 4.5 minutes reconditioning with the starting solvent at a flow rate of 250 μl/min. Compound detection and quantification were performed by positive ion electrospray ionization on a QToF Ultima mass spectrometer (Micromass, Manchester, UK).
# [4] = system: BFU-E; assay: HALO hematotoxicity assay, mouse BFU-E; type: cell-based; settings: 5 days culture, iATP
# Procedure: (§1) Investigation of the hematotoxic potential of UNBS5162 was undertaken by HemoGenix (Colorado Springs, Colo.). The effects of UNBS5162 on stem and progenitor cell populations from murine and human bone marrow were assessed using HALO (Hematopoietic/Hematotoxicity Assay through Luminescence Output) technology. Stem and hematopoietic progenitor cell populations were isolated from mouse and human bone marrow samples, plated at a concentration of 1.0×10^4 cells/well and cultured for 5 and 7 days, respectively, in the presence of growth factors and increasing concentrations of UNBS5162 ranging from 0.5 nM to 50 μM. The proliferative or growth potential of cell populations was determined from intracellular ATP (iATP) concentrations and a luciferin/luciferase bioluminescence signal detection system. All samples were assayed in eight replicates. The results are presented as estimated inhibitory concentration (IC) values.
# [5] = system: BFU-E; assay: HALO hematotoxicity assay, human BFU-E; type: cell-based; settings: 7 days culture, iATP
# Procedure: as §1
# [6] = system: GM-CFC; assay: HALO hematotoxicity assay, human GM-CFC; type: cell-based; settings: 7 days culture, iATP
# Procedure: as §1
# [7] = system: E2F1; assay: E2F1 expression (Western blot, RT-PCR), PC-3; type: cell-based, human; settings: 10 μM
# Procedure: Reverse transcription reactions were carried out in a thermal cycler (Thermocycler; Westburg, Leusden, The Netherlands). The purification of the cDNAs produced was undertaken using the High Pure PCR Product Purification Kit (Roche Diagnostics, Mannheim, Germany) in accordance with the manufacturer's instructions. Quantitative PCR reactions were performed with 50 ng of purified cDNA in a LightCycler thermocycler instrument (Roche Diagnostics) using LCFastart DNA Master SYBR Green 1 (Roche Diagnostics). After amplification, data analysis was carried out by means of the “Fit points” algorithm of the LightCycler quantification software. A standard curve enabled cDNA quantification of samples to be effected. […]
# Cell extracts were prepared by the lysis of subconfluent PC-3 cells directly in boiling lysis buffer (10 mM Tris, pH 7.4, 1 mM Na3O4V, 1% SDS, pH 7.4). Approximately 40 μg of extracted proteins (evaluated by the bicinchoninic acid protein assay; Pierce, Perbio Science, Erembodegem, Belgium) was then loaded onto a denaturing polyacrylamide gel. The proteins submitted to Western blot analyses were detected using primary antibodies provided by: 1) CST Technologies, Bioké, Leiden, The Netherlands: Rb (1:2000) and p-Rb (1:1000); 2) BD Transduction Laboratories, Erembodegem, Belgium: E2F1 (1:400); and 3) AbCam, Cambridge, UK: tubulin (1:3000, used as a loading control). […]
# [8] = system: E2F1; assay: E2F1 expression (Western blot), DU-145; type: cell-based, human; settings: 10 μM
# [9] = B6D2F1, mouse, plasma, iv, female mice, i.v. 20 mg/kg single
# [10] = B6D2F1, mouse, plasma, po, female mice, p.o. 80 mg/kg single
structure (smiles),measurement,setting,value
"CN(C)CCN1C(=O)c2cccc3cc(NC(N)=O)cc(c23)C1=O [UNBS5162, N-{2-[2-(dimethylamino)ethyl]-1,3-dioxo-2,3-dihydro-1H-benzo[de]isoquinolin-5-yl}urea]",cells undergoing apoptotic processes (Annexin V and propidium iodide positive),[1]; 10 μM,≤ 10%
same,induction of real (early) apoptosis,[1]; flow cytometry,does not induce real (early) apoptosis
same,lysosomal membrane permeabilization (LMP),[2],no LMP
same,AUC(0-inf),[3]; [9],5770 ng·h/mL
same,Cmax,[3]; [9],12000 ng/mL
same,Vd,[3]; [9],18.9 L/kg
same,half-life,[3]; [9],3.8 h
same,bioavailability,"[3]; B6D2F1, mouse, plasma, oral, female mice, p.o. 80 mg/kg versus i.v. 20 mg/kg, read-out: F (absolute bioavailability)",3.84%
same,AUC(0-inf),[3]; [10],886 ng·h/mL
same,Cmax,[3]; [10],510 ng/mL
same,Tmax,[3]; [10],0.3 h
same,Cl,"[3]; female mice, i.v. 20 mg/kg single",3.47 L/h per kilogram
same,time for which 1-μM plasma levels are sustained,"[3]; mice, post-i.v. 20 mg/kg",≤ 2 h
same,time for which plasma levels of 10 μM are maintained,"[3]; mice, post-i.v. 20 mg/kg",approximately 30 minutes
same,pIC50,[4]; 120 h,5.26
same,IC90,[4]; 120 h,9.11 µM
same,IC75,[4],7.03 µM
same,pIC50,[5]; 168 h,5.44
same,IC90,[5]; 168 h,17.6 µM
same,IC75,[5],8.16 µM
same,pIC50,[6]; 168 h,5.43
same,IC90,[6]; 168 h,19.9 µM
same,IC75,[6],8.12 µM
same,E2F1 expression at protein and mRNA levels,[7],dramatic decrease in E2F1 expression
same,E2F1 expression,[8],a decrease but not the complete disappearance of Rb protein and E2F1 expression
